Data set [1] relates to acyl-CoA synthetase. Kind of data set: Substrate specificity of acyl-CoA synthetase (fatty acids). As to conditions: for Activity (μmol acyl-CoA/min.): fatty acid concentration 0.25 mM. It is filed as biochemical, Candida lipolytica. The procedure:
(§1) The sssay of enzyme activity was carried out by the Banis and Tove method. (See Biochemica et Biophysica Acta, Vol. 348, pages 210-220 (1974)). According to this method, the reaction solution contained 20 μmol of Tris-HCl buffer (pH 7.5), 3 μmol of ATP, 2 μmol of MgCl2, 1.0 μmol of dithiothreitol, 0.2 μmol of [U-^14 C] potassium palmitate (0.2 mCi/mmol), 0.32 μmol of surfactant T, 0.2 μmol of CoA and an aliquot of the enzyme solution in a total volume of 0.2 ml. After a 5 minute preincubation, either the CoA or the enzyme solution which had been kept from incorporating in the reaction solution was added to initiate the reaction (at 25° C.). At the end of a 10 minute reaction period, 2.5 ml of isopropanol-n-heptane-1 M sulfuric acid (40:10:1) was added to stop the reaction. The solution was then extracted with heptane to remove any unreacted free fatty acid. After the aqueous layer was washed twice each with 2 ml of heptane containing 8 mg of palmitic acid, the radioactivity of the aqueous layer was measured.
(§2) The standard reaction solution contained 100 μmol of Tris-HCl buffer (pH 7.4), 5 μmol of dithiothreitol, 1.6 μmol of surfactant T, 7.5 μmol of ATP, 10 μmol of MgCl2, 0.25 μmol of potassium oleate, 1 μmol of CoA, 0.2 μmol of potassium phosphoenolpyruvate, 0.15 μmol of NADH, 20 μg of myokinase, 30 μg of pyruvate kinase, 30 μg of lactate dehydrogenase and a certain amount of acyl-CoA synthetase per ml of the solution. A reaction solution containing all the above components except CoA was preincubated at 25° C. for one minute. The reaction was then initiated by the addition of CoA, and the rate of decrease in optical density at 340 nm which was attributed to decrease in amount of NADH was determined.

In data set [2] the test system is acyl-CoA synthetase. Kind of data set: Activator and inhibitor of the enzyme. The class given is biochemical, Candida lipolytica.
The subject of data set [3] is acyl-CoA synthetase I. Kind of data set: Specificity for nucleoside-5'-triphosphate. The class given is biochemical, Candida lipolytica. Conditions: for effectiveness as nucleoside-5'-triphosphate: 7.5 mM and 15 mM. As for the experimental part:
as §2
(ii) Specificity for nucleoside-5'-triphosphate: Only ATP and αATP were effective. At concentrations of 7.5 mM and 15 mM, the activities measured with αATP were 78% and 61%, respectively, of those measured with ATP.

Data set [4] deals with acyl-CoA synthetase. The data set is described as follows: Substrate specificity of acyl-CoA synthetase (fatty acids). The class given is biochemical, Candida lipolytica. Conditions: fatty acid concentration 0.125 mM.
The subject of data set [5] is acyl-CoA synthetase I. Kind of data set: Specificity for acyl acceptors (Vmax and apparent Km). As to conditions: for utilization as acyl acceptor: at conc. up to 5 mM; for Km / Vmax: acyl acceptor; for Vmax: CoA designated as 100%. The class given is biochemical, Candida lipolytica. The procedure: as §1, §2
The Vmax values and the apparent Km values were as follows: […]

The conditions of data set [6]: most purified form, prior art; cited from earlier work.

Entries after “also recorded” stand apart in the source; their conditions may differ.

For the molecule `CCCCCCCCCCCCCCCC(=O)O` [Palmitic acid], the “Activity (μmol acyl-CoA/min.)” value in the data set on acyl-CoA synthetase [1] is 20.4 μmol acyl-CoA/min.

With `CCCCCCCCCCCCCC(=O)O` [Myristic acid], the “Activity (μmol acyl-CoA/min.)” value with acyl-CoA synthetase [1] is recorded as 20.8 μmol acyl-CoA/min.

For the molecule `CCCCCCCCCCCCCCCCCCC(=O)O` [Nonadecanoic acid], the “Activity (μmol acyl-CoA/min.)” value in the data set with acyl-CoA synthetase [1] came to 1.7 μmol acyl-CoA/min.

As for `[Cu+2]` [Cu^++], in the data set with acyl-CoA synthetase [2], the “activation or inhibition of the enzyme” value is listed as “inhibitor”. Besides, in the data set with acyl-CoA synthetase [2] (concentration of 15 mM), the “inhibition of the enzyme action” value was “completely inhibits”.

For the molecule `O=c1ccn([C@@H]2O[C@H](COP(=O)(O)OP(=O)(O)OP(=O)(O)O)[C@@H](O)[C@H]2O)c(=O)[nH]1` [UTP], the “effectiveness as nucleoside-5'-triphosphate” value in the data set on acyl-CoA synthetase I [3] is “essentially ineffective”.

With `[Mg+2]` [Mg^++], the “activation or inhibition of the enzyme” value with acyl-CoA synthetase [2] was “activator; also recorded: activated”.

In the case of `Nc1ncnc2c1ncn2[C@@H]1O[C@H](COP(=O)(O)OP(=O)(O)CP(=O)(O)O)[C@@H](O)[C@H]1O` [adenylyl (β,γ-methylene)diphosphonate], in the data set with acyl-CoA synthetase I [3], the “effectiveness as nucleoside-5'-triphosphate” value is on record as “essentially ineffective”.

Consider `CCCCC/C=C\C/C=C\C/C=C\C/C=C\CCCC(=O)O` [Arachidonic acid], for which, in the data set on acyl-CoA synthetase [4], the “Activity (μmol acyl-CoA/min.)” value worked out at 1.3 μmol acyl-CoA/min.

With `CCCCCCCCCCCCCCCCCCCC(=O)O` [Arachidic acid], the “Activity (μmol acyl-CoA/min.)” value in the data set with acyl-CoA synthetase [1] is given as 0.6 μmol acyl-CoA/min.

For the molecule `CC(=O)NCCS` [N-Acetylcysteamine], the “utilization as acyl acceptor” value in the data set with acyl-CoA synthetase I [5] is reported as “Not utilized”.

In the case of αATP, in the data set on acyl-CoA synthetase I [3], the “effectiveness as nucleoside-5'-triphosphate” value was “effective”. In addition, the figures for the “activity relative to that measured with ATP” value with acyl-CoA synthetase I [3] (nucleotide 7.5 mM) and in the data set with acyl-CoA synthetase I [3] (nucleotide 15 mM) were 78% and 61%, respectively.

Regarding `O=C(O)CCCCCCCCCCCCCCCO` [16-Hydroxypalmitic acid], in the data set on acyl-CoA synthetase [1], the “effectiveness as substrate of the enzyme” value is given as “essentially ineffective” and the “Activity (μmol acyl-CoA/min.)” value is listed as 1.5 μmol acyl-CoA/min.

In the case of `CCCCCCCCCCCCC(=O)O` [Tridecanoic acid], the “Activity (μmol acyl-CoA/min.)” value in the data set with acyl-CoA synthetase [4] was determined as 1.3 μmol acyl-CoA/min.

As to `CC(C)(COP(=O)(O)OP(=O)(O)OC[C@H]1O[C@@H](n2cnc3c(N)ncnc32)[C@H](O)[C@@H]1O)[C@@H](O)C(=O)NCCC(=O)NCCS` [Dephospho-CoA], in the data set with acyl-CoA synthetase I [5], the Michaelis constant (Km) is 110 µM and the Vmax is given as 70%.

Turning to `CC(C)(COP(=O)(O)OP(=O)(O)OC[C@H]1O[C@@H](n2cnc3c2ncn2ccnc32)[C@H](O)[C@@H]1OP(=O)(O)O)[C@@H](O)C(=O)NCCC(=O)NCCS` [1:^6 N-Etheno-CoA], in the data set with acyl-CoA synthetase I [5], the Michaelis constant (Km) came to 500 µM and the Vmax was determined as 40%.

As to `N[C@@H](CS)C(=O)O` [L-Cysteine], in the data set on acyl-CoA synthetase I [5], the “utilization as acyl acceptor” value was “Not utilized”.

Regarding `CCCCCCCCCCCC(=O)O` [Lauric acid], the “Activity (μmol acyl-CoA/min.)” value in the data set with acyl-CoA synthetase [1] was determined as 1.0 μmol acyl-CoA/min.

Consider `CCCCCCCCCCCCCCC(=O)O` [Pentadecanoic acid], for which the “Activity (μmol acyl-CoA/min.)” value in the data set on acyl-CoA synthetase [1] is on record as 18.0 μmol acyl-CoA/min.

As for `Nc1ncnc2c1ncn2[C@@H]1O[C@H](COP(=O)(O)OP(=O)(O)NP(=O)(O)O)[C@@H](O)[C@H]1O` [adenylyl imidodiphosphonate], the “effectiveness as nucleoside-5'-triphosphate” value with acyl-CoA synthetase I [3] is “essentially ineffective”.

With αTTP, in the data set with acyl-CoA synthetase I [3], the “effectiveness as nucleoside-5'-triphosphate” value was “essentially ineffective”.

Take `CC(C)(COP(=O)(O)OP(=O)(O)OC[C@H]1O[C@@H](n2cnc3c(N)ncnc32)[C@H](O)[C@@H]1OP(=O)(O)O)[C@@H](O)C(=O)NCCC(=O)NCCS` [CoA]: in the data set with acyl-CoA synthetase I [5], the Km stood at 42 µM and the Vmax turned out to be 100%.

As to `CCCCCC/C=C\CCCCCCCC(=O)O` [Palmitoleic acid], the “Activity (μmol acyl-CoA/min.)” value in the data set with acyl-CoA synthetase [4] is 19.8 μmol acyl-CoA/min.

Take `N[C@@H](CCC(=O)N[C@@H](CS)C(=O)NCC(=O)O)C(=O)O` [Glutathione]: the “utilization as acyl acceptor” value in the data set on acyl-CoA synthetase I [5] was “Not utilized”.

Take `O=C(O)CN(CCN(CC(=O)O)CC(=O)O)CC(=O)O` [EDTA]: the “activation or inhibition of the enzyme” value with acyl-CoA synthetase [2] was “inhibitor; also recorded: inhibits”.

For the molecule `O[C@H](CS)[C@H](O)CS` (racemic) [Dithiothreitol], the “utilization as acyl acceptor” value in the data set with acyl-CoA synthetase I [5] is “Not utilized”.

For the molecule `Nc1ncnc2c1ncn2[C@@H]1O[C@H](COP(=O)(O)OP(=O)(O)OP(=O)(O)O)[C@@H](O)[C@H]1O` [ATP], the “effectiveness as nucleoside-5'-triphosphate” value in the data set with acyl-CoA synthetase I [3] is “effective”.

Consider `CC(C)(COP(=O)(O)O)[C@@H](O)C(=O)NCCC(=O)NCCS` [4'-Phosphopantetheine], for which, in the data set on acyl-CoA synthetase I [5], the Km turned out to be 3300 µM and the Vmax came to 63%.

In the case of `CCCCCCCCCCCCCCCCC(=O)O` [Heptadecanoic acid], the “Activity (μmol acyl-CoA/min.)” value in the data set on acyl-CoA synthetase [4] is on record as 22.3 μmol acyl-CoA/min.

For the molecule `CCCCC/C=C\C/C=C\CCCCCCCC(=O)O` [Linoleic acid], the “Activity (μmol acyl-CoA/min.)” value with acyl-CoA synthetase [1] is 19.7 μmol acyl-CoA/min.

On to `CC(C)(CO)[C@@H](O)C(=O)NCCC(=O)NCCS` [Pantetheine], for which, in the data set on acyl-CoA synthetase I [5], the Km was found to be 2500 µM and the Vmax is recorded as 57%.

For `CCCCCCCC/C=C\CCCCCCCC(=O)O` [Oleic acid], in the data set on acyl-CoA synthetase [1], the “Activity (μmol acyl-CoA/min.)” value is on record as 23.8 μmol acyl-CoA/min.

Turning to `CC/C=C\C/C=C\C/C=C\CCCCCCCC(=O)O` [Linolenic acid], the “Activity (μmol acyl-CoA/min.)” value with acyl-CoA synthetase [1] is listed as 22.0 μmol acyl-CoA/min.

In the case of `O=C(O)CCCCCCCCCCCCCCC(=O)O` [Hexadecanedioic acid], in the data set on acyl-CoA synthetase [1], the “effectiveness as substrate of the enzyme” value is listed as “essentially ineffective” and the “Activity (μmol acyl-CoA/min.)” value turned out to be 0.6 μmol acyl-CoA/min.

For the molecule `Nc1ccn([C@@H]2O[C@H](COP(=O)(O)OP(=O)(O)OP(=O)(O)O)[C@@H](O)[C@H]2O)c(=O)n1` [CTP], in the data set with acyl-CoA synthetase I [3], the “effectiveness as nucleoside-5'-triphosphate” value is given as “essentially ineffective”.

For the molecule `Nc1nc2c(ncn2[C@@H]2O[C@H](COP(=O)(O)OP(=O)(O)OP(=O)(O)O)[C@@H](O)[C@H]2O)c(=O)[nH]1` [GTP], the “effectiveness as nucleoside-5'-triphosphate” value with acyl-CoA synthetase I [3] was “essentially ineffective”.

B1: acyl-CoA synthetase from E. coli: prior art enzyme purified from Escherichia coli by D. Samuel et al (protein, UniProt P69451 1-561, looked up)
Long-chain-fatty-acid--CoA …: MKKVWLNRYPADVPTEINPDRYQSLVDMFEQSVARYADQPAFVNMGEVMTFRKLEERSRAFAAYLQQGLGLKKGDRVALMMPNLLQYPVALFGILRAGMIVVNVNPLYTPRELEHQLNDSGASAIVIVSNFAHTLEKVVDKTAVQHVILTRMGDQLSTAKGTVVNFVVKYIKRLVPKYHLPDAISFRSALHNGYRMQYVKPELVPEDLAFLQYTGGTTGVAKGAMLTHRNMLANLEQVNATYGPLLHPGKELVVTALPLYHIFALTINCLLFIELGGQNLLITNPRDIPGLVKELAKYPFTAITGVNTLFNALLNNKEFQQLDFSSLHLSAGGGMPVQQVVAERWVKLTGQYLLEGYGLTECAPLVSVNPYDIDYHSGSIGLPVPSTEAKLVDDDDNEVPPGQPGELCVKGPQVMLGYWQRPDATDEIIKNGWLHTGDIAVMDEEGFLRIVDRKKDMILVSGFNVYPNEIEDVVMQHPGVQEVAAVGVPSGSSGEAVKIFVVKKDPSLTEESLVTFCRRQLTGYKVPKLVEFRDELPKSNVGKILRRELRDEARGKVDNKA
As for B1, the specific activity in data set [6] was 106 mU/mg protein.
